Drawing on US20090082329A1 (AVENTIS PHARMA S.A., priority 2006, published 2009), this text covers IC50 for 13 compounds.

SMILES strings stand for the structures. Like-named read-outs stand apart in the source and are kept apart here.

For test [1], the target named is T1, human cytoplasmic domain of IGF-1R (Homo sapiens, UniProt P08069).
T1 construct: The human cytoplasmic domain of IGF-1R was cloned by fusion with glutathione S-transferase (GST); made in house; host or cells: SF21 insect cells (baculovirus, pFastBac-GST)
T1 sequence (P08069 960-1367 limits assumed): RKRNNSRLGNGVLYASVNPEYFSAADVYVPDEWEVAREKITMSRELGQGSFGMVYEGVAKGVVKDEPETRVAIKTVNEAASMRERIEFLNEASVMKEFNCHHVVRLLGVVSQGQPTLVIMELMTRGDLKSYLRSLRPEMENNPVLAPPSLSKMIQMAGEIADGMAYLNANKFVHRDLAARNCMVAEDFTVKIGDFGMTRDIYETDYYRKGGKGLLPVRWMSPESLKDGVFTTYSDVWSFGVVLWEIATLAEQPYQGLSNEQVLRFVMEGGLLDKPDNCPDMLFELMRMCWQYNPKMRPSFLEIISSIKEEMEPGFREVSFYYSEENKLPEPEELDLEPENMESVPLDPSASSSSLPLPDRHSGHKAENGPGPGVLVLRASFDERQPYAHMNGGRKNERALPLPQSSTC
The test can be described thus: Kinase IGF-1R test: inhibition of autophosphorylation of the enzyme (HTRF). The class given is biochemical. The following applies: ATP 120 μM. How it is done: A) Experimental Protocol for the Kinase IGF-1R Test:
The inhibitory activity of the compounds on IGF1R is determined by measuring the inhibition of autophosphorylation of the enzyme using a time-resolved fluorescence test (HTRF). The human cytoplasmic domain of IGF-1R was cloned by fusion with glutathione S-transferase (GST) in the baculovirus expression vector pFastBac-GST. The protein is expressed in the SF21 cells and purified to about 80% homogeneity. For the enzymatic test, the test compound at 10 mM dissolved in DMSO is diluted in ⅓ steps in a 50 mM Hepes, pH 7.5, 5 mM MnCl2, 50 mM NaCl, 3% Glycerol, 0.025% Tween 20 buffer. To measure the inhibition, the successive dilutions of the compound are preincubated for 30 minutes and 90 minutes in the presence of 5 nM of enzyme, the final DMSO concentration not exceeding 1%. The enzymatic reaction is initiated to have a final ATP concentration of 120 μM, and is stopped after 5 minutes by addition of 100 mM Hepes, pH 7.0 buffer containing 0.4 M of potassium fluoride, 133 mM EDTA, 0.1% BSA, the XL665-labelled antibody anti-GST and the anti-phosphotyrosine antibody conjugated to europium cryptate Eu—K (Cis-Bio Int.). The characteristics of the two fluorophores, XL-665 and Eu—K, are available in G. Mathis et al., Anticancer Research, 1997, 17, pages 3011-3014. The energy transfer between the excited europium cryptate to the acceptor XL665 is proportional to the degree of autophosphorylation of IGF-1R. The specific long-lasting signal of XL-665 is measured in a GENios Pro TECAN plate counter. The inhibition of autophosphorylation of IGF-1R at time 30 minutes and 90 minutes with the test compounds of the invention is calculated relative to a 1% in DMSO control, whose activity is measured in the absence of compound. The curve representing the percentage of inhibition as a function of the log of the concentration is established to determine the concentration corresponding to 50% inhibition (IC50),
A general note: Time-resolved FRET reads energy transfer from a long-lived donor to a nearby acceptor.

The subject of test [2] is MEF-IGF1R cells. The test can be described thus: Proliferation/viability of MEF-IGF1R (Thymidine [14C] incorporation). The class given is cell-based. To be noted: rhIGF1 100 ng/mL, incubation 72 hours, read-out: Test C IC50. On the procedure:
C) Measurement of the Proliferation/Viability of MEF-IGF1R
Cell culture: the MEF-IGF1R cells (stable clone of cells transfected with the receptor hIGF-1R) are cultured at 37° C. under 5% CO2 in EMEM medium containing 10% FCS.
Test procedure: the cells are seeded at 5000 cells per well in 96-well Cytostar plates (Amersham) with 0.2 mL of EMEM culture medium at 37° C. for 18 hours. The cells are then washed twice with EMEM medium and left to culture without serum for 24 hours. The compounds are then added at various concentrations in the presence of rhIGF1 (100 ng/mL) and 0.1 μCi of Thymidine [^14C] (specific activity ˜50 mCi/mmol) to give 0.2 mL of volume per well. After incubation for 72 hours in the presence of the compound, at 37° C. under 5% CO2, the incorporation of Thymidine [^14C] is measured by counting the radioactivity on a Microbeta trilux counter (Perkin-Elmer). The IC50 is determined from 10 increasing concentrations of the compound.
(§1) (i) The tests are performed in duplicate and the mean of the two tests is calculated.
(§2) (ii) The value of the signal of the maximum response is calculated from the positive control: cells stimulated with IGF1 without compound.
(§3) (iii) Value of the signal of the minimum response is calculated from the negative control: cells not stimulated with IGF1 without compound.
(§4) (iv) By using these values as maximum (100%) and minimum (0%), respectively, the data were normalized so as to give a percentage of the maximum response.
(§5) (v) A curve of dose response is plotted and the IC50 (the concentration of which the compound induces a 50% decrease in the signal) of the compound is calculated by non-linear regression analysis.

In test [3] the target is IGF-1R in MCF7 cells (Homo sapiens, UniProt P08069). The test can be described thus: Autophosphorylation of IGF-1R in MCF7 cells after stimulation with IGF-1 (ELISA). Also on record: endogenous in cells; host or cells: MCF-7 cells. To be noted: MCF-7 cells, compound added one hour before stimulation with IGF1; read-out: Test B IC50. The format is cell-based. On the procedure: B) Measurement of the Autophosphorylation of IGF-1R in MCF7 Cells after Stimulation with IGF-1
Chain of IGF-1R in MCF7 cells (P08069 31-1367): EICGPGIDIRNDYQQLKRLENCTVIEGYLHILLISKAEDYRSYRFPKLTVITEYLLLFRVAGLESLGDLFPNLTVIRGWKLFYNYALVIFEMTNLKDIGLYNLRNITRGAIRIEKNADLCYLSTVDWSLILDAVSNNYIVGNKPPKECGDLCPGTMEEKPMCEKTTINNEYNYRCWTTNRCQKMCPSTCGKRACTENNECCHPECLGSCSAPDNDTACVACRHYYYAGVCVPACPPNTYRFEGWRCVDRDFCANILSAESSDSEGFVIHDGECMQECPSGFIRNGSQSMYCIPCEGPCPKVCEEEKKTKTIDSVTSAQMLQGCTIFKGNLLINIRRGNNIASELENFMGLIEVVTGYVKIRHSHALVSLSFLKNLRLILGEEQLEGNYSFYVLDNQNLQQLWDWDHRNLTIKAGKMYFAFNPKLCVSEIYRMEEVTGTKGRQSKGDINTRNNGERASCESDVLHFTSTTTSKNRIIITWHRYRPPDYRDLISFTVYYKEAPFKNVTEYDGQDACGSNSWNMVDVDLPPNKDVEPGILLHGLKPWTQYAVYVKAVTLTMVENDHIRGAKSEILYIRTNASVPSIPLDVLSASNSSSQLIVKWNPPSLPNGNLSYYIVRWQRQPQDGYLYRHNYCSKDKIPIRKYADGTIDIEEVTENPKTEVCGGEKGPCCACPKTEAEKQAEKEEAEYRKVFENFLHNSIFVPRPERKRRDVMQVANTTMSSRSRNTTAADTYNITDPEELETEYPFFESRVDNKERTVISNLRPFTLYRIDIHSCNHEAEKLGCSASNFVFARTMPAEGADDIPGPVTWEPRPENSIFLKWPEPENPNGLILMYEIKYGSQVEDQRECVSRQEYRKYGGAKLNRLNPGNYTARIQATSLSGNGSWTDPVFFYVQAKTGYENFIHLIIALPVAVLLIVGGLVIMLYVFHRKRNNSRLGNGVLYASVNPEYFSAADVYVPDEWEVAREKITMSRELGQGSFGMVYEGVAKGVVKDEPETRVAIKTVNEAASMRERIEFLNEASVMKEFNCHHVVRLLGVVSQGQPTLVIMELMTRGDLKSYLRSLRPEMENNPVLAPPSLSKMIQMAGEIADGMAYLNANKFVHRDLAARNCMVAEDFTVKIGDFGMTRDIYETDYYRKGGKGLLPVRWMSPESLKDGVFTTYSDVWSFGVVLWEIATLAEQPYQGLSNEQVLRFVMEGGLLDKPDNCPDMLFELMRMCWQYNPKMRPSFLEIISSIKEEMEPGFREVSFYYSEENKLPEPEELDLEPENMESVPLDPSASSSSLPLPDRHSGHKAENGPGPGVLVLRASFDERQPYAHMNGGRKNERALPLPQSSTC
Cell Culturing and Execution of the Test:
The autophosphorylation of IGF1R in the IGF1-induced cells is evaluated by means of an ELISA technique (Enzyme Linked ImmunoSorbent Assay). The MCF-7 are seeded at 60 000 cells per well in 6-well plates and incubated at 37° C., 5% CO2 in medium containing 10% serum. After one night in 10% serum, the cells are deprived of serum for 24 hours. The compounds are added to the medium one hour before stimulation with IGF1. After 10 minutes of stimulation with IGF1, the cells are lysed with a buffer (Hepes 50 mM pH 7.6, Triton X100 1%, orthovanadate 2 mM, protease inhibitor cocktail). The cell lysates are incubated on a 96-well plate precoated with an anti-IGF1R antibody, followed by incubation with an anti-phosphotyrosine antibody coupled to the enzyme peroxidase. The level of peroxidase activity (measured by OD with a luminescent substrate) reflects the phosphorylation status of the receptor.
as §1, §2, §3, §4, §5
A general note: ELISA stands for enzyme-linked immunosorbent assay.

Setting [4] is: preincubation 30 minutes with 5 nM enzyme, read-out: Test A 30′ IC50.
The mark [5] stands for this setting: preincubation 90 minutes with 5 nM enzyme, read-out: Test A 90′ IC50.

Broadly, the IC50 is the concentration at which inhibition is half-maximal. In the case of `CC1(C)C(=O)N(c2ccc(SC(F)(F)F)cc2)C(=O)N1Cc1ccnc(Nc2cc(F)ccc2F)c1` [Example 5, 1-({2-[(2,5-difluorophenyl)amino]pyridin-4-yl}-methyl)-5,5-dimethyl-3-{4-[(trifluoromethyl)thio]phenyl}imidazolidine-2,4-dione], the IC50 is 10 to 100 nM in test [1] (setting [4]), 10 to 100 nM in test [2] and more than 100 nM in test [3].
For the compound `CC1(C)C(=O)N(c2ccc(SC(F)(F)F)cc2)C(=O)N1Cc1ccnc(NC(=O)c2cc(Cl)cc(Cl)c2)c1` [Example 6, 3,5-dichloro-N-{4-[(5,5-dimethyl-2,4-dioxo-3-{4-[(trifluoromethyl)thio]phenyl}imidazolidin-1-yl)methyl]pyridin-2-yl}benzamide], the IC50 in test [1] (setting [4]) was more than 100 nM; in test [2], less than 10 nM; in test [3] it was more than 100 nM.
Take `Cc1ccc(F)c(C(=O)Nc2cc(CN3C(=O)N(c4ccc(SC(F)(F)F)cc4)C(=O)C3(C)C)ccn2)c1Cl` [Example 7, 2-chloro-N-{4-[(5,5-dimethyl-2,4-dioxo-3-{4-[(tri-fluoromethyl)thio]phenyl}imidazolidin-1-yl)methyl]pyridin-2-yl}-6-fluoro-3-methylbenzamide]: the IC50 in test [1] (setting [4]) was more than 100 nM; in test [1] (setting [5]) it was 10 to 100 nM; in test [2], 10 to 100 nM; in test [3] it was more than 100 nM.
With `CN(C)C(=O)c1cccc(Nc2cc(CN3C(=O)N(c4ccc(SC(F)(F)F)cc4)C(=O)C3(C)C)ccn2)c1` [Example 8, 3-({4-[(5,5-dimethyl-2,4-dioxo-3-{4-[(trifluoro-methyl)thio]phenyl}imidazolidin-1-yl)methyl]pyridin-2-yl}amino)-N,N-dimethylbenzamide], the IC50 in test [1] (setting [4]) was 10 to 100 nM; in test [1] (setting [5]), less than 10 nM; in test [2], 10 to 100 nM; in test [3] it was less than 10 nM.
As for `C[C@H](CO)Nc1nccc(CN2C(=O)N(c3ccc(S(=O)(=O)C(F)(F)F)cc3)C(=O)C2(C)C)n1` [Example 9, 1-[(2-{[(1R)-2-hydroxy-1-methylethyl]amino}-pyrimidin-4-yl)methyl]-5,5-dimethyl-3-{4-[(trifluoromethyl)-sulfonyl]phenyl}imidazolidine-2,4-dione], the IC50 in test [1] (setting [4]) is more than 100 nM; in test [1] (setting [5]) it was 10 to 100 nM; in test [2] it was 10 to 100 nM; in test [3] it was more than 100 nM.
With `CC1(C)C(=O)N(c2ccc(SC(F)(F)F)cc2)C(=O)N1Cc1ccnc(Nc2cccnc2)n1` [Example 11, 5,5-dimethyl-1-{[2-(pyridin-3-ylamino)pyrimidin-4-yl]methyl}-3-{4-[(trifluoromethyl)thio]phenyl}imidazolidine-2,4-dione], the half-inhibitory concentration (IC50) was 10 to 100 nM in test [1] (setting [4]), less than 10 nM in test [1] (setting [5]), less than 10 nM in test [2] and less than 10 nM in test [3].
Take `CC1(C)C(=O)N(c2ccc(SC(F)(F)F)cc2)C(=O)N1Cc1ccnc(Nc2cncnc2)c1` [Example 14, 5,5-dimethyl-1-{[2-(pyrimidin-5-ylamino)pyridin-4-yl]methyl}-3-{4-[(trifluoromethyl)thio]phenyl}imidazolidine-2,4-dione]: the IC50 in test [1] (setting [4]), in test [1] (setting [5]), in test [2] and in test [3] was more than 100 nM each time.
Regarding `CC1(C)C(=O)N(c2ccc(SC(F)(F)F)cc2)C(=O)N1Cc1ccnc(Nc2cncnc2)n1` [Example 15, 5,5-dimethyl-1-{[2-(pyrimidin-5-ylamino)pyrimidin-4-yl]methyl}-3-{4-[(trifluoromethyl)thio]phenyl}imidazolidine-2,4-dione], the IC50 in test [1] (setting [4]) was 10 to 100 nM; in test [1] (setting [5]) it was 10 to 100 nM; in test [2], more than 100 nM; in test [3], 10 to 100 nM.
For the compound `CC1(C)C(=O)N(c2ccc(S(=O)(=O)C(F)(F)F)cc2)C(=O)N1Cc1ccnc(Nc2cncnc2)n1` [Example 16, 5,5-dimethyl-1-{[2-(pyrimidin-5-ylamino)pyrimidin-4-yl]methyl}-3-{4-[(trifluoromethyl)sulfonyl]phenyl}imidazolidine-2,4-dione], the IC50 in test [1] (setting [4]) was 10 to 100 nM; in test [1] (setting [5]), 10 to 100 nM; in test [2], more than 100 nM; in test [3] it was 10 to 100 nM.
Regarding `CCOC(=O)Nc1cc(CN2C(=O)N(c3ccc(SC(F)(F)F)cc3)C(=O)C2(C)C)ccn1` [Example 18 Stage a), ethyl {4-[(5,5-dimethyl-2,4-dioxo-3-{4-[(trifluoromethyl)thio]phenyl}imidazolidin-1-yl)methyl]pyridin-2-yl}carbamate], the IC50 in test [1] (setting [4]), in test [1] (setting [5]), in test [2] and in test [3] was 10 to 100 nM throughout.
In the case of `CC1(C)C(=O)N(c2ccc(SC(F)(F)F)cc2)C(=O)N1Cc1ccnc(NC(=O)NCCCN2CCCC2)c1` [Example 18, 1-{4-[(5,5-dimethyl-2,4-dioxo-3-{4-[(trifluoro-methyl)thio]phenyl}imidazolidin-1-yl)methyl]pyridin-2-yl}-3-(3-pyrrolidin-1-ylpropyl)urea], the IC50 in test [1] (setting [4]) was 10 to 100 nM; in test [1] (setting [5]) it was 10 to 100 nM; in test [2] it was more than 100 nM; in test [3] it was 10 to 100 nM.
Take `CC1(C)C(=O)N(c2ccc(SC(F)(F)F)cc2)C(=O)N1Cc1ccnc(NC(=O)NC2CCCC2)c1` [Example 19, 1-cyclopentyl-3-{4-[(5,5-dimethyl-2,4-dioxo-3-{4-[(trifluoromethyl)thio]phenyl}imidazolidin-1-yl)methyl]pyridin-2-yl}urea]: the IC50 was 10 to 100 nM in test [1] (setting [4]), 10 to 100 nM in test [1] (setting [5]), 10 to 100 nM in test [2] and less than 10 nM in test [3].
As for `CC1(C)C(=O)N(c2ccc(SC(F)(F)F)cc2)C(=O)N1Cc1ccnc(NC(=O)NCCN2CCCC2)c1` [Example 20, 1-{4-[(5,5-dimethyl-2,4-dioxo-3-{4-[(trifluoro-methyl)thio]phenyl}imidazolidin-1-yl)methyl]pyridin-2-yl}-3-(2-pyrrolidin-1-ylethyl)urea], the IC50 in test [1] (setting [4]), in test [1] (setting [5]), in test [2] and in test [3] was more than 100 nM each time.
